This note sets out measurements from ChEMBL document CHEMBL3044926, “Controlling powdery mildew on cucurbit rootstock seedlings in the greenhouse with fungicides and biofungicides” (Crop Prot, 2012).

Data set [1] concerns Podosphaera xanthii. The data set is described as follows: Fungicidal activity against Podosphaera xanthii (powdery mildew) inoculated in inter-specific squash hybrid Strong tosa (Cucurbita moschata x Cucurbita maxima) rootstock seedlings for 7 days prior to drug application assessed as disease severity at 20.6% in 1.36 ml/L applied once measured 7 days post-drug dose under greenhouse conditions (water Rvb = 17.5%). In kind it is functional.

For data set [2], the system named is Podosphaera xanthii. Nature of the data set: Fungicidal activity against Podosphaera xanthii (powdery mildew) inoculated in Lagenaria siceraria Emphasis continuously after first drug application assessed as disease severity on lower surface areas of cotyledons at 20.6% in 1.36 ml/L applied thrice at 5-days intervals measured 5 days after third application under green house conditions (water Rvb = 13.9%). In kind it is functional.

Data set [3] has as its system Podosphaera xanthii. Nature of the data set: Fungicidal activity against Podosphaera xanthii (powdery mildew) inoculated in Lagenaria siceraria Emphasis continuously after first drug application assessed as disease severity on upper surface areas of cotyledons at 20.6% in 1.36 ml/L applied thrice at 5-days intervals measured 5 days after third application under green house conditions (water Rvb = 36.8%). Format: functional.

For data set [4], the system named is Podosphaera xanthii. The data set is described as follows: Fungicidal activity against Podosphaera xanthii (powdery mildew) inoculated in inter-specific squash hybrid Strong tosa (Cucurbita moschata x Cucurbita maxima) rootstock seedlings for 7 days prior to drug application assessed as incidence of disease symptoms on hypocotyls or upper or lower sides of cotyledons at 20.6% in 1.36 ml/L applied once measured 7 days post-drug dose under greenhouse …. In kind it is functional.

Data set [5] deals with Podosphaera xanthii. The data set is described as follows: Fungicidal activity against Podosphaera xanthii (powdery mildew) inoculated in squash (Cucurbita pepo) rootstock seedlings continuously after first drug application assessed as disease severity at 20.6% in 1.36 ml/L applied thrice at 5-days intervals measured 5 days after third application under green house conditions (water Rvb = 3.9%). In kind it is functional.

The subject of data set [6] is Podosphaera xanthii. The data set is described as follows: Fungicidal activity against Podosphaera xanthii (powdery mildew) inoculated in squash (Cucurbita pepo) rootstock seedlings continuously after first drug application assessed as incidence of disease symptoms on hypocotyls or upper or lower sides of cotyledons at 20.6% in 1.36 ml/L applied thrice at 5-days intervals measured 5 days after third application under green house conditions (water Rvb = …. In kind it is functional.

Data set [7] deals with Podosphaera xanthii. Nature of the data set: Fungicidal activity against Podosphaera xanthii (powdery mildew) inoculated in inter-specific squash hybrid Strong tosa (Cucurbita moschata x Cucurbita maxima) rootstock seedlings for 7 days prior to drug application assessed as disease severity on upper surface areas of cotyledonsat 20.6% in 1.36 ml/L applied once measured 7 days post-drug dose under greenhouse conditions (water Rvb = 10.2%). Format: functional.

In data set [8] the test system is Podosphaera xanthii. The data set is described as follows: Fungicidal activity against Podosphaera xanthii (powdery mildew) inoculated in Lagenaria siceraria Emphasis continuously after first drug application assessed as disease severity at 20.6% in 1.36 ml/L applied thrice at 5-days intervals measured 5 days after third application under green house conditions (water Rvb = 53.5%). Format: functional.

Data set [9] has as its system Podosphaera xanthii. Nature of the data set: Fungicidal activity against Podosphaera xanthii (powdery mildew) inoculated in Lagenaria siceraria Emphasis continuously after first drug application assessed as incidence of disease symptoms on hypocotyls or upper or lower sides of cotyledons at 20.6% in 1.36 ml/L applied thrice at 5-days intervals measured 5 days after third application under green house conditions (water Rvb = 100%). In kind it is functional.

Data set [10] deals with Cucurbita maxima x Cucurbita moschata. Nature of the data set: Phytotoxicity against inter-specific squash hybrid Cucurbita moschata x Cucurbita maxima (Strong tosa) rootstock seedlings assessed as stunting. Format: organism-based. The note with it: in vivo.
Data set [11] has as its system Lagenaria siceraria. The data set is described as follows: Phytotoxicity against Lagenaria siceraria 'Emphasis' rootstock seedlings assessed as stunting. Format: organism-based. The note with it: in vivo.
In data set [12] the test system is Podosphaera xanthii. The data set is described as follows: Fungicidal activity against Podosphaera xanthii (powdery mildew) inoculated in inter-specific squash hybrid Strong tosa (Cucurbita moschata x Cucurbita maxima) rootstock seedlings for 7 days prior to drug application assessed as disease severity on lower surface areas of cotyledonsat 20.6% in 1.36 ml/L applied once measured 7 days post-drug dose under greenhouse conditions (water Rvb = 5.1%). Format: functional.

Data set [13] has as its system Lagenaria siceraria. The data set is described as follows: Phytotoxicity against Lagenaria siceraria 'Emphasis' rootstock seedlings assessed as severe chlorosis or necrosis on cotyledons. Format: organism-based. The note with it: in vivo.
The test system of data set [14] is Cucurbita maxima x Cucurbita moschata. Nature of the data set: Phytotoxicity against inter-specific squash hybrid Cucurbita moschata x Cucurbita maxima (Strong tosa) rootstock seedlings assessed as severe chlorosis or necrosis on cotyledons. Format: organism-based. The note with it: in vivo.
For data set [15], the system named is Podosphaera xanthii. Nature of the data set: Fungicidal activity against Podosphaera xanthii (powdery mildew) inoculated in inter-specific squash hybrid Strong tosa (Cucurbita moschata x Cucurbita maxima) rootstock seedlings for 7 days prior to drug application assessed as disease severity on upper surface areas of cotyledonsat 22.58% in 0.47ml/L applied once measured 7 days post-drug dose under greenhouse conditions (water Rvb = 10.2%). In kind it is functional.

Data set [16] concerns Podosphaera xanthii. Nature of the data set: Fungicidal activity against Podosphaera xanthii (powdery mildew) inoculated in inter-specific squash hybrid Strong tosa (Cucurbita moschata x Cucurbita maxima) rootstock seedlings for 7 days prior to drug application assessed as disease severity at 22.58% in 0.47ml/L applied once measured 7 days post-drug dose under greenhouse conditions (water Rvb = 17.5%). Format: functional.

In data set [17] the test system is Podosphaera xanthii. The data set is described as follows: Fungicidal activity against Podosphaera xanthii (powdery mildew) inoculated in inter-specific squash hybrid Strong tosa (Cucurbita moschata x Cucurbita maxima) rootstock seedlings for 7 days prior to drug application assessed as incidence of disease symptoms on hypocotyls or upper or lower sides of cotyledons at 22.58% in 0.47ml/L applied once measured 7 days post-drug dose under greenhouse …. Format: functional.

The test system of data set [18] is Podosphaera xanthii. Nature of the data set: Fungicidal activity against Podosphaera xanthii (powdery mildew) inoculated in squash (Cucurbita pepo) rootstock seedlings continuously after first drug application assessed as disease severity at 22.58% in 0.47ml/L applied thrice at 5-days intervals measured 5 days after third application under green house conditions (water Rvb = 3.9%). Format: functional.

Data set [19] relates to Podosphaera xanthii. Nature of the data set: Fungicidal activity against Podosphaera xanthii (powdery mildew) inoculated in squash (Cucurbita pepo) rootstock seedlings continuously after first drug application assessed as incidence of disease symptoms on hypocotyls or upper or lower sides of cotyledons at 22.58% in 0.47ml/L applied thrice at 5-days intervals measured 5 days after third application under green house conditions (water Rvb = …. Format: functional.

Data set [20] has as its system Podosphaera xanthii. The data set is described as follows: Fungicidal activity against Podosphaera xanthii (powdery mildew) inoculated in inter-specific squash hybrid Strong tosa (Cucurbita moschata x Cucurbita maxima) rootstock seedlings for 7 days prior to drug application assessed as disease severity on lower surface areas of cotyledonsat 22.58% in 0.47ml/L applied once measured 7 days post-drug dose under greenhouse conditions (water Rvb = 5.1%). Format: functional.

Each structure is given as a SMILES string.

As to `CC(C)CC(C)c1sccc1NC(=O)c1cn(C)nc1C(F)(F)F` (stereo not given) [PENTHIOPYRAD], the Activity in the data set on Podosphaera xanthii [1] worked out at 0.05%; with Podosphaera xanthii [2] it was 0.3%; with Podosphaera xanthii [3], 0.9%; with Podosphaera xanthii [4], 2.3%; with Podosphaera xanthii [5], 0%; in the data set with Podosphaera xanthii [6], 0%. Moreover, the Activity with Podosphaera xanthii [7] was 0%; in the data set on Podosphaera xanthii [8], 1.3%; with Podosphaera xanthii [9], 14.6%; in data set [10], “Toxic”; in the data set with Lagenaria siceraria [11] it was “Toxic”; in the data set on Podosphaera xanthii [12] it was 0.03%.

For `Fc1ccc(Oc2ccnc3cc(Cl)cc(Cl)c23)cc1` [QUINOXYFEN], the Activity entry was “Toxic” in the data set on Lagenaria siceraria [13]; “Toxic” in data set [14]; 1.2% in the data set with Podosphaera xanthii [15]; 1.8% with Podosphaera xanthii [16]; 14.6% in the data set on Podosphaera xanthii [17]; 0.43% in the data set on Podosphaera xanthii [18]. Moreover, the Activity with Podosphaera xanthii [19] is on record as 23.4%; in the data set with Podosphaera xanthii [20] it was 0.3%.
